Reference: patent publication US20220204473A1, “COMPOUND AS IRAK INHIBITOR” (SHANGHAI MEIYUE BIOTECH DEVELOPMENT CO., LTD., priority 2018, published 2022)

Columns and labels:
human IRAK4 = target: T1, human IRAK4 (Homo sapiens, UniProt Q9NWZ3); assay: IRAK4 MSA (Mobility-Shift Assay) at Km ATP; format: biochemical; conditions: GST-IRAK4 1 nM, ATP 37 μM (Km); read-out: IC50 for inhibiting human IRAK4 kinase
T1 construct: purchased Cama (so in the source)
T1 sequence (Q9NWZ3 1-460): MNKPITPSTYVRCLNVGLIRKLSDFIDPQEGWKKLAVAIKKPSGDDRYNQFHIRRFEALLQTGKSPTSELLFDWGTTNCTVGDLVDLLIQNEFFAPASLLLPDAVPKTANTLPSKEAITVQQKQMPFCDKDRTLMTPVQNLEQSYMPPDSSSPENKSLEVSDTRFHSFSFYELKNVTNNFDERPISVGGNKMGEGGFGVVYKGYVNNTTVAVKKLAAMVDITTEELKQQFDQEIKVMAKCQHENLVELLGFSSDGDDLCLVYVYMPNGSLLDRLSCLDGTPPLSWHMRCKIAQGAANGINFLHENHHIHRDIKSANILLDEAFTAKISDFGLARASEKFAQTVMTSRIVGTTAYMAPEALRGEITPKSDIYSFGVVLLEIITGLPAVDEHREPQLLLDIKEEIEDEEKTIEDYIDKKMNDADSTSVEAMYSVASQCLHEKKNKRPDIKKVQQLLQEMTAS
Protocol: A recombinant fusion protein of N-terminal GST (glutathione-S-transferase) and human IRAK4 was used as enzyme (GST-IRAK4, kinase IRAK4 (Cama)) at a final concentration of 1 nM; ATP (Sigma) was at a final concentration of 37 μM; the substrates used for the kinase reaction were a 5-FAM (5-carboxyfluorescein)-labeled polypeptide (5-FAM-[…]-COOH) and a substrate peptide FAM-P8 (GL Biochem) at final concentrations of […].
In this assay, 500 μM solutions of the compounds were prepared in 100% DMSO, and serially 4-fold diluted to the 10th concentration gradient with 100% DMSO, followed by a 10-fold dilution in the compound buffer (50 mM HEPES. pH 7.5, 0.00015% Brij-35) to give intermediate dilutions of the compounds at a final concentration of 10 μM-0.04 nM containing 10% DMSO respectively, 5 μL of the dilutions were transferred into a black 384-well plate respectively.
IRAK4 was diluted to 2.5 nM in the kinase buffer (50 mM HEPES, pH 7.5, 0.00015% Brij-35, 2 mM DTT). 10 μL of the IRAK4 dilution was transferred to the 384-well plate and co-incubated with the compound for 10-15 min.
The substrate and ATP were diluted to 12.5 μM and 92.5 μM with reaction buffer (50 mM HEPES, pH 7.5, 0.00015% Brij-35, 10 mM MgCl2), respectively. 10 μL of the dilutions were transferred to a 384-well plate and incubated at 28° C. for 1 h respectively. The reaction was terminated by adding 25 μL of 50 mM EDTA to the 384-well plate.
The inhibition rates of IRAK4 by the compounds were calculated by measuring the rate of phosphorylated substrate using a Caliper EZ Reader (PerkinElmer) and the IC50 values were calculated by XL-fit software.

[1] = test system: TNF-α release in LPS-induced Balb/c female mice; assay: Inhibition of TNF-α release in LPS-induced Balb/c female mice; format: in vivo, mouse; parameters: concentration or dose not given beside the values; conditions: oral gavage 5 h before LPS induction, serum 1.5 h after stimulation
Protocol: In the normal control groups, the animals received an intraperitoneal injection of normal saline (10 mL/kg) and in the model groups, the animals received LPS stimulation (Sigma CAT #L2630, i.p., 10 mL/kg, 0.2 mg/kg). During the assay, to the test compounds, DMSO, Solutol and 10 mM PBS were sequentially added to prepare a solution or suspension of required concentration for administration. For the vehicle, DMSO, Solutol and 10 mM PBS were mixed in a volume ratio of 5:15:80. In each of the groups, the animals were administered through oral gavage (10 mL/kg) 5 h before LPS (or saline) stimulation at predetermined doses, and euthanized with CO2 at 1.5 h after the stimulation for cardiac blood collection. The whole blood was not anticoagulated, incubated in wet ice for 1.5 h, and centrifuged at 2000×g at 4° C. for 10 min to separate the serum. The serum was frozen at −80° C. for TNF-α assay. Quantification of the TNF-α was done with TNF-α ELISA kit according to the manufacturer's instruction.

[2] = test system: IL-6 release in LPS-induced Balb/c female mice; assay: Inhibition of IL-6 release in LPS-induced Balb/c female mice; format: in vivo, mouse; parameters: concentration or dose not given beside the values; conditions: administered 5 h before LPS induction, serum
Protocol: Objective of the test: To determine the inhibitory effect of the compounds by measuring the plasma IL-6 concentration in a Balb/c mouse model with LPS-induced inflammation.
2.1 Prepared mouse serum samples (sample batch no. 20181218)
4.1 Reagent kit was equilibrated at room temperature (25-28° C.) for 20 min. After each detection, the remaining reagents were stored at 4° C.
4.3 Preparing reference standard: 1 vial of reference standard substance was added with labeled volume of reference standard diluent. The mixtures were incubated for 15 min at room temperature. Then the mixtures were gently mixed to completely dissolve the substance to prepare a reference standard stock at a final concentration of 1000 μg/mL.
4.4 Dilution of samples: The sample in each group was diluted by […], i.e., a 2-fold dilution with sample assay buffer followed by another two-fold dilution with standard diluent.
4.5 The diluted samples or standards of different concentrations were added into corresponding wells at 100 μL/well respectively, and a background correcting well (or a blank well) was set by adding only TMB buffer and terminating solution. The wells were sealed with a transparent film and incubated at room temperature for 120 min.
4.6 The plate was subjected to 5 washes, each with 300 μL of washing buffer for 15-30 sec. The plate was dried on thick absorbent paper after the last wash.
4.7 Biotinylated antibody was added at 100 μL/well (Note: the biotinylated antibody was prepared in advance and could be used directly without further dilution). The wells were sealed with a transparent film and incubated at room temperature for 60 min.
4.8 The plate was subjected to 5 washes, each with 300 μL of washing buffer for 15-30 sec. The plate was dried on thick absorbent paper after the last wash.
4.9 Horseradish peroxidase-labeled streptavidin was added at 100 μL/well. The wells were sealed with a white film and incubated away from light at room temperature for 20 min.
4.10 The plate was subjected to 5 washes, each with 300 μL of washing buffer for 15-30 sec. The plate was dried on thick absorbent paper after the last wash.
4.11 The chromogenic reagent TMB was added 100 μL/well. The wells were sealed with a white film and incubated away from light at room temperature for 20 min.
4.12 The terminating solution was added at 50 μL/well and A450 value was measured right after mixing.

[3] = Stability in human liver microsomes; format: in vitro ADME; conditions: ∞ = no obvious metabolism found during assay
Protocol: (§1) 1. Preparation of buffer C:
(§2) Buffer A: 1.0 L of 0.1 M monopotassium phosphate buffer (containing 1.0 mM EDTA);
(§3) Buffer A: 1.0 L of 0.1 M dipotassium phosphate buffer (containing 1.0 mM EDTA);
(§4) Buffer C: Buffer A was added to 700 mL of buffer B until pH reached 7.4.
(§5) The test compound and the reference were separately dissolved in DMSO to give 10 mM stocks.
(§6) 500 μM solution: 10 μL of 10 mM stock solution was added to 190 μL of acetonitrile;
(§7) 1.5 μM dosing solution (in liver microsome solution):
(§8) 18.75 μL of 20 mg/mL liver microsomes were added to 479.75 μL of buffer C, followed by 1.5 μL of 500 μM solution. The mixture was gently shaken to mix well.
(§9) NADPH was weighed, to which an appropriate amount of buffer C was added to prepare a 6 mM NADPH solution.
(§10) 5. 30 μL of 1.5 μM dosing solution was added to wells of a 96-well plate set for different time points (0 min, 5 min, 15 min, 30 min, 45 min) in duplicate.
(§11) 6. Preparation of 0 min samples: 135 μL of acetonitrile (containing internal standard) was added to the 0 min wells, followed by 15 μL of 6 mM NADPH solution.
(§12) 7. The 96-well plate containing 1.5 μM dosing solution and NADPH solution were preheated for 5 min in a water bath at 37° C.
(§13) 8. 15 μL of pre-heated 6 mM NADPH solution was added to wells set for 5 min, 15 min, 30 min and 45 min to start the reaction.
(§14) 9. At time points of 5 min, 15 min, 30 min and 45 min, the reaction was terminated by adding 135 μL of acetonitrile (containing internal standard). The mixtures were vortexed for 10 min and centrifuged at 5594×g for 15 min (Thermo Multifuge×3R).
(§15) 10. 50 μL of the supernatant was transferred to wells of a 96-well plate containing 50 μL of water. The samples were mixed and finally subjected to LC-MS/MS analysis.

[4] = Stability in rat liver microsomes; format: in vitro ADME; conditions: pH 7.4, ∞ = no obvious metabolism found during assay, read-out: Stability test in liver microsomes t1/2, Rat
Protocol: as §1, §2, §3, §4, §5, §6, §7, §8, §9, §10, §11, §12, §13, §14, §15

[5] = Stability in mouse liver microsomes; format: in vitro ADME; conditions: ∞ = no obvious metabolism found during assay
Protocol: as §1, §2, §3, §4, §5, §6, §7, §8, §9, §10, §11, §12, §13, §14, §15

CYP1A2 = target: T2, CYP1A2 (Homo sapiens, UniProt P05177); assay: CYP450 inhibition in human liver microsomes, CYP1A2; format: in vitro ADME
T2 construct: tissue Corning (USA); host or cells: mixed human liver microsomes
T2 sequence (P05177 1-516): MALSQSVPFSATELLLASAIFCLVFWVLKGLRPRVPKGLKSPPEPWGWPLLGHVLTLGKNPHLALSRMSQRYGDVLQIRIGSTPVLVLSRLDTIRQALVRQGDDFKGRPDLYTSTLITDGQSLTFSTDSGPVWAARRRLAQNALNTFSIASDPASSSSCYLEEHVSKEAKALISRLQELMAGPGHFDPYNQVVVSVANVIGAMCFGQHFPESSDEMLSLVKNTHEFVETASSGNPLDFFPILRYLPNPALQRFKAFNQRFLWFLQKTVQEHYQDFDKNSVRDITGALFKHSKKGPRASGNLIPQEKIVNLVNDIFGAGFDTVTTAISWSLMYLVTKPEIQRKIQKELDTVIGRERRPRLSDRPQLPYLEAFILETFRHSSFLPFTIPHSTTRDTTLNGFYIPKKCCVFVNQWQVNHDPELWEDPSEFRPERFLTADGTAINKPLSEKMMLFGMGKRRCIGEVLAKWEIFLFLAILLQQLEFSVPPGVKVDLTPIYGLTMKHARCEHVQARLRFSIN
Protocol: (§16) This study was intended to investigate the inhibitory effect of the test compounds on five major CYP450 enzyme subtypes CYP1A2, 2C9, 2C19, 2D6 and 3A4 in human liver microsomes. The mixed human liver microsomes used in this assay were purchased from Corning (USA). The test compounds were co-incubated at 7 concentrations with human liver microsomes and five probe substrates (phenacetin for CYP1a2, diclofenac for CYP2C9, mephenytoin for CYP2C19, dextromethorphan for CYP2D6, midazolam for CYP3A4-M, mixed). The reaction was initiated by adding coenzyme NADPH, and terminated by adding acetonitrile containing internal standard. After the proteins were precipitated, the supernatant was centrifuged. The characteristic metabolites in the supernatant (acetaminophen for CYP1A2, 4-hydroxydiclofenac for CYP2C9, 4-hydroxymephenytoin for CYP2C19, dextrorphan for CYP2D6, 1-hydroxymidazolam for CYP3A4-M) were analyzed by LC-MS/MS. The influence of the test compounds on production of the characteristic metabolites was finally analyzed on the basis of the data obtained. A selective inhibitor (ketoconazole for CYP3A4-M) was used as positive control. All samples were tested in duplicate.

CYP2C9 = target: T3, CYP2C9 (Homo sapiens, UniProt P11712); assay: CYP450 inhibition in human liver microsomes, CYP2C9; format: in vitro ADME
T3 construct: tissue Corning (USA); host or cells: mixed human liver microsomes
Protocol: as §16

CYP2C19 = target: T4, CYP2C19 (Homo sapiens, UniProt P33261); assay: CYP450 inhibition in human liver microsomes, CYP2C19; format: in vitro ADME
T4 construct: tissue Corning (USA); host or cells: mixed human liver microsomes
Protocol: as §16

CYP2D6 = target: T5, CYP2D6 (Homo sapiens, UniProt P10635); assay: CYP450 inhibition in human liver microsomes, CYP2D6; format: in vitro ADME
T5 construct: tissue Corning (USA); host or cells: mixed human liver microsomes
Protocol: as §16

CYP3A4 = target: T6, CYP3A4 (Homo sapiens, UniProt P08684); assay: CYP450 inhibition in human liver microsomes, CYP3A4; format: in vitro ADME
T6 construct: tissue Corning (USA); host or cells: mixed human liver microsomes
Protocol: as §16

T6 sequence (P08684 whole entry): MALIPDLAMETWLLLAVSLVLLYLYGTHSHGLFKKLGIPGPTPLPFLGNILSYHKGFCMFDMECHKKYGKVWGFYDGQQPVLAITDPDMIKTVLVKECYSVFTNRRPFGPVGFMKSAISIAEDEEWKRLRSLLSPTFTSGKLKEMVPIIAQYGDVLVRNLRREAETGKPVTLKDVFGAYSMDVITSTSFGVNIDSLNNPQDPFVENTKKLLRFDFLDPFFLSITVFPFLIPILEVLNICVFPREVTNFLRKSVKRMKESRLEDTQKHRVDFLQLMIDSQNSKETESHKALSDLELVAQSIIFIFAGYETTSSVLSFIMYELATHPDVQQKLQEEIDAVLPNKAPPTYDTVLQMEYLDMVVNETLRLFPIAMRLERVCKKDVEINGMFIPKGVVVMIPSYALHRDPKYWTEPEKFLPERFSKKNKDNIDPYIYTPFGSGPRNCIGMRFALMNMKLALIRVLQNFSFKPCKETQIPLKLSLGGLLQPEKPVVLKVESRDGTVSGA
T5 sequence (P10635 whole entry): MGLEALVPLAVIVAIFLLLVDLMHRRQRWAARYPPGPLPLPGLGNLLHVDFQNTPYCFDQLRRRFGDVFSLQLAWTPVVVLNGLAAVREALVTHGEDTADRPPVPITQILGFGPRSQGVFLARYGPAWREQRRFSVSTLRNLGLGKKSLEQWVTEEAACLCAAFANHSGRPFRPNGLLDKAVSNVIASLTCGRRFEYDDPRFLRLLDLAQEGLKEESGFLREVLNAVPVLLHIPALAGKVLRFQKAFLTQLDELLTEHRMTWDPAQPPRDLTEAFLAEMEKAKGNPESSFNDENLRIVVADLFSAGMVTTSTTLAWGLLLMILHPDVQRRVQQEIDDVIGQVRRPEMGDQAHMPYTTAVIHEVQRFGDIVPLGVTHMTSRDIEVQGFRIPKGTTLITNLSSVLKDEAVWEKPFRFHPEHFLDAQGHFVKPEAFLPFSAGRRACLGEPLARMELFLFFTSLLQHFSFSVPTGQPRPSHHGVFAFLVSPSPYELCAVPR
T3 sequence (P11712 whole entry): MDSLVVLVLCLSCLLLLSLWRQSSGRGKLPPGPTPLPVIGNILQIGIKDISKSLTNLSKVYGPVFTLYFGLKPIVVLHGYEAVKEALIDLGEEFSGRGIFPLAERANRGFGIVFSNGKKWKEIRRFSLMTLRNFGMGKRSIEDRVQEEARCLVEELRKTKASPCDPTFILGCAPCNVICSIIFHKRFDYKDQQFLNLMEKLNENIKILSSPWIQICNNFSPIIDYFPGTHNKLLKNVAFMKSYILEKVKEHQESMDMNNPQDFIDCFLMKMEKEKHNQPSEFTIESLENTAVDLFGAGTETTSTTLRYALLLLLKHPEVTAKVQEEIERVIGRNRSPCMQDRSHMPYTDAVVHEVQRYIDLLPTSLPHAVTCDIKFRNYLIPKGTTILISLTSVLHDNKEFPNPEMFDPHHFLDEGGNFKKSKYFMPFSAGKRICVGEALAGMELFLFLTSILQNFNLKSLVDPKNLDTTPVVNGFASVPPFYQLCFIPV
T4 sequence (P33261 whole entry): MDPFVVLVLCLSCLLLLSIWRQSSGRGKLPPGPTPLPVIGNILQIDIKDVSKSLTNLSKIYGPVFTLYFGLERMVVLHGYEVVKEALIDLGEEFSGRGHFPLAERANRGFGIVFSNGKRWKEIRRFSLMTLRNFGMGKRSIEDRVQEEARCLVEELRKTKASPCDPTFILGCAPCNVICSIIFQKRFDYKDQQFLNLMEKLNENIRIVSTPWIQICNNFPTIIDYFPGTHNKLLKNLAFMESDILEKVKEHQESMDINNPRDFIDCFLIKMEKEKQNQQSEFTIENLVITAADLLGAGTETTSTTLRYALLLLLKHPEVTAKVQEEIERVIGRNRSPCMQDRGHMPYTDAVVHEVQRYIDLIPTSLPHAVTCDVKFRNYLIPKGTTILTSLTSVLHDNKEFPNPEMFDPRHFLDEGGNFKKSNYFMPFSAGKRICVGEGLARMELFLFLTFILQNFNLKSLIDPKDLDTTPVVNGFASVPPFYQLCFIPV

| IC50 (human IRAK4) | Stability test in liver microsomes t1/2, Human [3] | half-life at 1 μM [4] | Stability test in liver microsomes t1/2, Mouse [5] | IC50 (CYP1A2) | IC50 (CYP2C9) | IC50 (CYP2C19) | IC50 (CYP2D6) | IC50 (CYP3A4) | Structure (SMILES) | Inhibition rate of TNF-α [1] | Inhibition rate of IL-6 [2] |
| --- | --- | --- | --- | --- | --- | --- | --- | --- | --- | --- | --- |
| 0.002 µM |  |  |  |  |  |  |  |  | COc1cc2nn([C@H]3C[C@H](C(C)(C)O)C3)cc2cc1NC(=O)c1cccc(C(F)F)n1 [MY-004-115] | 89.59% | 93.35% |
| 0.0044 µM | ∞ | 11.4 h | ∞ |  |  |  |  |  | CC(C)(O)[C@H]1C[C@H](n2cc3cc(NC(=O)c4cccc(C(F)(F)F)n4)c(-n4cccn4)cc3n2)C1 [MY-004-144] |  |  |
|  |  |  |  | 2.91 µM | 19.1 µM | 23.5 µM | > 30 µM | > 30 µM | CC(C)(O)CCn1cc2cc(NC(=O)c3cccc(C(F)(F)F)n3)c(C(C)(C)O)cc2n1 [MYA, reference compound] |  |  |
